The results in this text go back to article PMC5676773, “Odor-evoked inhibition of olfactory sensory neurons drives olfactory perception in Drosophila” (Nature Communications, 2017).

The target of assay [1] is T1, Or85a (OR/ORCO complex in Or85a-OSNs) (Drosophila melanogaster, UniProt Q9VHS4).
T1 construct: native receptor in Or85a-expressing olfactory sensory neurons, antennal slices; GFP-labelled via Or85a-Gal4; with Odorant receptor coreceptor
T1 sequence (Q9VHS4 1-397): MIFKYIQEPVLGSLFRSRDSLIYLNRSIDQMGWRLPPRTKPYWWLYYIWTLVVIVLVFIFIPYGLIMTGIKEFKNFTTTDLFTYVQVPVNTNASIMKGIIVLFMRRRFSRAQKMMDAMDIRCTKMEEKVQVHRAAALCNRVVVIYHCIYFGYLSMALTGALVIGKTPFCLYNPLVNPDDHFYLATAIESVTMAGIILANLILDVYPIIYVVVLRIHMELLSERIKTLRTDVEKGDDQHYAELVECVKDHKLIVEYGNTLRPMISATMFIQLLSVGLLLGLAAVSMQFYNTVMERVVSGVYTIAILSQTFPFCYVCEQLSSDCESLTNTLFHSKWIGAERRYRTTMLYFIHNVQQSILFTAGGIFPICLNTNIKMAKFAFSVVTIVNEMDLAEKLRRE
T1 sequence (Q9VNB5 1-486 partner): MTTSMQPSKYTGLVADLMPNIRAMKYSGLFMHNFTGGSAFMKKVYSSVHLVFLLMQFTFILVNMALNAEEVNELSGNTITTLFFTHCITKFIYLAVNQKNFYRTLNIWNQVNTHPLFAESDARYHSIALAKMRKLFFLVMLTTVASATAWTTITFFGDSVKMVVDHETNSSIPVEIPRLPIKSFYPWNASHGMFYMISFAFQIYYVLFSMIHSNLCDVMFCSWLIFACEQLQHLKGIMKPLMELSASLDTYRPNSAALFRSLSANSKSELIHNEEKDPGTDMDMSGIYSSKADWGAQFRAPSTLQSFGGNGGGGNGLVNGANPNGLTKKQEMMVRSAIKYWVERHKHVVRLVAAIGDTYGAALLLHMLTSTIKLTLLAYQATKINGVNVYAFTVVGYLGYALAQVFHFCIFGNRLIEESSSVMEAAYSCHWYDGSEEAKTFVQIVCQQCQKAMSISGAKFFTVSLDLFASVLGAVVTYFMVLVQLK
The assay is described as follows: perforated patch clamp of Or85a-OSNs, inward receptor current. The assay is classed as cell-based. As to conditions: 35-ms odor pulses, no acetophenone; excitatory odor (agonist); nominal concentration in saline; voltage-clamped; read-out: K 1/2.

Assay [2] deals with T1, Or85a (OR/ORCO complex in Or85a-OSNs). The assay is described as follows: perforated patch clamp of Or85a-OSNs, outward receptor current (reduction of basal current). The assay is classed as cell-based. As to conditions: 150-ms odor pulses, -80 mV; inhibits constitutive activity (inverse agonist), competitive against ethyl 3-hydroxybutyrate; Hill fit, n = 4; read-out: K 1/2. For orientation: The patch-clamp technique gives a direct electrical read-out from membranes.

As for `CCOC(=O)CC(C)O` (centres unmarked) [ethyl 3-hydroxybutyrate], the EC50 in assay [1] is 1.1 ± 0.2 mM. As for `CC(=O)c1ccccc1` [acetophenone], in assay [2], the IC50 was 27 ± 13 mM.
